Results: patent US20140315738A1, “MARINE MEDAKA GENES RESPONDING TO THE EXPOSURE OF ENDOCRINE-DISRUPTING CHEMICALS, AND METHOD FOR DIAGNOSING AN AQUATIC ECO-SYSTEM CONTAMINATION USING SAME” (priority 2011, published 2014)

System: Javanese medaka (Oryzias javanicus) livers
Experiment: real-time quantitative PCR of liver gene expression after exposure to BPA
Format: in vivo
Conditions: 76 μg/L, 48 hr, β-actin control gene
Experimental: To 3 L beaker with 2 L filtered seawater therein, 10 male Javanese medaka bred in culture water tank were transported each time, and acclimated for 24 hr. […] Additionally, five Javanese medaka of Example <1-1> were exposed to BPA (76 μg/L) for 48 hr. […] The Javanese medaka was transported to ice water, one at a time, which momentarily stunned it, followed by beheading and evisceration and liver removal.
Primers for real-time quantitative PCR (RT-PCR) for the above genes were designed and synthesized, and sequences of the primers of the genes for real time quantitative PCT are listed in Table 6 below.
With RNA template extracted with the method of Example <2-1>, cDNA was synthesized using AB High Capacity RAN-to-cDNA Kit (Applied Biosystems, USA). RNA in the amount of 1 μg was seeded, added with distilled water and titrated to 9 μl. 2×RT buffer (10 μl), and 20× enzyme Mix 1 μl were mixed well, centrifuged and precipitated, and allowed to react at 37° C. for 60 min. The reactant was heated at 95° C. for 5 min, after which reaction was completed. The synthesized cDNA was stored at −20° C.
To the 0.5 μg synthesized cDNA (corresponding to approximately 10 ng/μl), 0.8 primer pairs of corresponding genes (10 pmol/μl), and 2 SYBR1 mixture (10 μl) were added. The final amount was titrated to 20 μl using distilled water. At temperature condition of 95° C. 10 min, 95° C. 30 sec, 60° C. 30 sec, 72° C. 30 sec, 40 cycles of PCR were conducted.
CT values of the respective samples after exposure to BPA between control genes (β-actin) and genes of interest were compared with each other, and the relative expression differences of the genes of interest were quantified into relative values according to Relative Standard Curve (Table 7).

`CC(C)(c1ccc(O)cc1)c1ccc(O)cc1` [BPA, Bisphenol A] was tested. Which “Fold difference, Apolipoprotein E1 (AP)” value did it give?
The value was “+2.30 fold”.

And the “Fold difference, Arylamine N-acetyl transferase (ANAT)” value?
Its value is −1.69 fold.

What about the “Fold difference, Basigin (Bsgn)” value of the same compound?
Its value is “+4.25 fold”.

And the “Fold difference, C1q-like adipose specific protein (C-ASP)” value?
Its value is −2.17 fold.

What about the “Fold difference, Calcium binding protein P22 (CBP-P22)” value of the same compound?
Its value is “+1.19 fold”.

And the “Fold difference, Catalase (Cat)” value?
Its value is −1.49 fold.

And the “Fold difference, Ceruloplasmin (Cer)” value?
The value was “+2.09 fold”.

What about the “Fold difference, Chitinase (Chi)” value of the same compound?
The value was −5.56 fold.

And the “Fold difference, Choline kinase (Chka)” value?
The value was “+4.18 fold”.

What about the “Fold difference, Choriogenin L (ChL)” value of the same compound?
Its value is “+50.00 fold”.

And the “Fold difference, Complement component C8 beta (C8)” value?
Its value is −1.37 fold.

What about the “Fold difference, Complement factor B/C2-B (CF-B/C2)” value of the same compound?
The value was −2.27 fold.

And the “Fold difference, Delta 6-desaturase (FD6D)” value?
The value was “+1.43 fold”.

What about the “Fold difference, Delta-6 fatty acyl desaturase (FADSD6)” value of the same compound?
The value was −1.39 fold.

And the “Fold difference, Glutaminase (Gls)” value?
Its value is −1.35 fold.

What about the “Fold difference, Glutathione S-transferase (Gst)” value of the same compound?
Its value is −1.85 fold.

And the “Fold difference, Hepcidin (Hep)” value?
Its value is −1.14 fold.

And the “Fold difference, Leukocyte elastase inhibitor (LE)” value?
Its value is “+1.12 fold”.

And the “Fold difference, Lipoprotein lipase (LPL)” value?
The value was “+1.11 fold”.

What about the “Fold difference, N-acetyltransferase (NAT13)” value of the same compound?
Its value is −2.50 fold.

And the “Fold difference, Plasminogen (Plg)” value?
Its value is “+1.25 fold”.

What about the “Fold difference, Retinol binding protein 4 (RBP4)” value of the same compound?
The value was “+1.12 fold”.

And the “Fold difference, Ring finger protein 141 (RFP)” value?
The value was “+1.23 fold”.

What about the “Fold difference, TBT-binding protein (TBT-bp)” value of the same compound?
Its value is −1.66 fold.

What about the “Fold difference, Transferrin (TF)” value of the same compound?
Its value is −1.30 fold.

What about the “Fold difference, Uridine phosphorylase 2 (Upp2)” value of the same compound?
Its value is −1.72 fold.

And the “Fold difference, Vitellogenin 1 (Vit1)” value?
The value was −100.00 fold.

What about the “Fold difference, Warm temperature acclimation (C243) (Wap65)” value of the same compound?
Its value is “+1.07 fold”.
